BindingDB's records for doi:10.1016/j.bmcl.2003.08.070 (Wyeth Research, 2003)

Experiments:
[1] = target: Leukotriene B4 receptor 1 (Mus musculus) (UniProt O88855); experiment: Inhibitory concentration against LTB4 receptor determined in mast cell line MC-9 assay
[2] = target: T1, Leukotriene B4 receptor 1 (Homo sapiens, UniProt Q15722); experiment: ChEBML_99664
Source text: (§1) Inhibitory concentration against LTB4 receptor determined in human neutrophils PMN assay

[3] = target: T1, Leukotriene B4 receptor 1; experiment: as §1

T1 sequence (Q15722 whole entry): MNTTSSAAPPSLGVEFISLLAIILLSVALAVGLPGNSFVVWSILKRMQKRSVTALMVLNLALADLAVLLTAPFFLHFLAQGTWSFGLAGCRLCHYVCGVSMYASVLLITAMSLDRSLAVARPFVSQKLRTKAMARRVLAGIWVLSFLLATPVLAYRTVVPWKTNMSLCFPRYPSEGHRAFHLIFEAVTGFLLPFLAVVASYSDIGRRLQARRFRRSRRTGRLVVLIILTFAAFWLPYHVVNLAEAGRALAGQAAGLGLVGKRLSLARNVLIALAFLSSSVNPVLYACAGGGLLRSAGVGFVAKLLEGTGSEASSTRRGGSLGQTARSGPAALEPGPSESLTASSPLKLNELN
Sequence of Leukotriene B4 receptor 1 (Mus musculus) (O88855 whole entry, looked up): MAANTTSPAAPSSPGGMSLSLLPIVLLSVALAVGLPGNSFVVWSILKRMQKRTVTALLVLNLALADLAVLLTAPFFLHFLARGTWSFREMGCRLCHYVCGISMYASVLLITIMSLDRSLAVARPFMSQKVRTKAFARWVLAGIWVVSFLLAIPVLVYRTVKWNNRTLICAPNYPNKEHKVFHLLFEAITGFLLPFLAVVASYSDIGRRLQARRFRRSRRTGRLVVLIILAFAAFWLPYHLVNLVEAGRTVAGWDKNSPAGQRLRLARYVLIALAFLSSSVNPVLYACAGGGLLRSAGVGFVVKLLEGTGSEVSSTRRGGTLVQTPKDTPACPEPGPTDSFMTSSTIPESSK

| IC50 [1] [nM] | IC50 [2] [nM] | IC50 [3] [nM] | Compound |
| --- | --- | --- | --- |
| 1100 | 400 |  | COc1cc(C(=O)O)ccc1Cc1cn(C(c2ccccc2)c2ccccc2)c2ccc(Br)cc12 [4-(1-Benzhydryl-5-bromo-1H-indol-3-ylmethyl)-3-methoxy-benzoic acid] |
|  |  | 400 | COc1cc(C(=O)O)ccc1Cc1cn(C(c2ccccc2)c2ccccc2)c2ccc(C)cc12 [4-(1-Benzhydryl-5-methyl-1H-indol-3-ylmethyl)-3-methoxy-benzoic acid] |
| 2800 |  | 500 | COc1cc(C(=O)O)ccc1Cc1cn(C(c2ccccc2)c2ccccc2)c2ccc([N+](=O)[O-])cc12 [4-(1-Benzhydryl-5-nitro-1H-indol-3-ylmethyl)-3-methoxy-benzoic acid] |
